# Where no end group is shown, it is not given here.
# How the values were obtained:
# [1] = system: α-SMA mRNA; test: RT-PCR of α-SMA mRNA expression in HSC; format: cell-based, SD rat; settings: after 48 hours, FIG. 4
# Protocol: HSC from SD rats were separated using centrifuging on gradient created by Pronase-collagenase and Nycodenz. HSC cells at 1.5×10^5/cm2 was plated at 6-well plate, or culture dish (100 mm diameter). The culture medium is DMEM with 20% serum from newborn calf. The purity of HSC cells was determined using Vitamin A self-fluorescence and anti-Desmin immunocytochemistry experiments. Cell viability was determined using trypan blue staining. First generation HSC's purity and viability were 90% and 95% respectively. HSC can self-activate if grown in non-ECM condition, which means HSC can express α-SMA, and Vitamin A drop disappears. After cell fusion, activated HSC is released with trypsin, and propagate.
# Use Trizol reagent to extract total RNA, then conduct two-step RT-PCR according to kit instructions.
# [2] = system: human lung cancer A549; test: Human lung cancer A549 xenograph nude mice; format: in vivo; settings: 6 times a week, 3 weeks
# Protocol: (§1) Experimental animals: Female BALB/cA nude mice, age 35-40 days, weight 18-22 g, provided by Shanghai Silaike Experimental Animal Co. Ltd., certificate number: SOCK (Shanghai) 2007-0005.
# (§2) The tumor of xenograph nude mice grew to 100˜300 mm^3. Tumor mice were divided into different groups for drug testing. In the experiment below, there were 12 nude mice in negative control group, and 6 nude mice in the group with tested drug. Tumor diameter was measured three times each week, and mice weight was measured at the same time.
# (§3) T/C (relative tumor inhibition rate) % was calculated as below: • (1) tumor volume, TV, calculated as below: TV=½×a×b^2 • A and b are length and width. • (2) relative tumor volume, RTV, calculated as below: RTV=TVt/TV0. • TV0 ? is tumor volume at the beginning of drug use (d0), TVt is tumor volume at later time point. • (3) relative tumor inhibition rate T/C (%), calculate as below:
# (§4) [formula] TRTV: treatment group RTV; CRTV: negative control RTV
# Peptide SEQ ID No:1 was given through tail vein (IV), at dosing of 0.5 mg/kg, 0.25 mg/kg, and 0.125 mg/kg, 6 times a week. Docetaxol was positive control, at dosing of 20 mg/kg, once a week. Negative control was given saline solution. The xenograph nude mice were treated for 3 weeks.
# [3] = system: BEL-7402; format: cell-based, Human; settings: 72 h
# Protocol: (§5) 2. Cell Lines • Human liver cancer cell line (SMMC-7721, BEL-7402, BEL-7402) were purchased from National Medical Academy of Sciences Tissue Bank and Chinese Academy of Sciences, Shanghai Cell line Research Institute.
# (§6) 3. Cell Culture • All cell lines were incubated at 37C, 5% CO2 incubator with saturated humidity. Culture media was RPMI1640 media with 10% heat inactivated FBS, penicillin 100 u/ml, streptomycin 100 u/ml. After 48 hours media was changed. Cells were released with 0.25% trypsin and propagate. Cells used in the experiment were in log phase. Cell viability was determined using trypan blue staining.
# (§7) 4. Methods • Take cells at log phase and release with 0.125% trypsin+0.01% EDTA and dilute cells to 2-4×10^4 cells/ml. Cells were placed in 96 well plate (180 ul/well), and were incubated at 37 C CO2 incubator for 24 hours. Media was changed, then peptide SEQ ID No:1 was added to the well (20 ul/well), incubate for 72 hours. Add MTT into 96 well plate (20 ul/well), and incubate for 4 hours. Media was removed, add DMSO (150 ul/well). The plate was shaken for 10 minutes. 7 concentration points (0.1 to 10 uM) was examined. Absorbance at 570 nm was measured for each well to calculate the IC50. IC50=(O.D. at well with no peptide−O.D. at well with peptide)/O.D. at well with no peptide
# [4] = system: BEL-7404; format: cell-based, Human; settings: 72 h
# Protocol: as §5, §6, §7
# [5] = system: SMMC-7721; format: cell-based, Human; settings: 72 h
# Protocol: as §5, §6, §7
# [6] = Mice weight in xenograph tumor mice models; format: in vivo, BALB/cA nude mice; settings: all the xenograph tumor mice models, different concentration
# Protocol: as §2
# [7] = system: human liver cancer BEL-7402; test: Human liver cancer BEL-7402 xenograph nude mice; format: in vivo; settings: for T/C(%) relative tumor inhibition rate: 6 times a week, 3 weeks
# Protocol: as §1, §2, §3, §4
# […] Docetaxol was positive control, at dosing of 20 mg/kg, once a week. Negative control was given saline solution. The xenograph nude mice were treated for 3 weeks.
# [8] = system: human breast cancer MDA-MB-435; test: Human breast cancer MDA-MB-435 xenograph nude mice; format: in vivo; settings: 0.5 mg/kg IV, 6 times a week, 4 weeks
# Protocol: as §1, §2, §3, §4
# Peptide SEQ ID No:1 was given through tail vein (IV), at dosing of 2 mg/kg, 1 mg/kg, 0.5 mg/kg, 6 times a week. Docetaxol was positive control, at dosing of 20 mg/kg, once a week. Negative control was given saline solution. The xenograph nude mice were treated for 4 weeks.
# [9] = system: human liver cancer cell BEL-7402; test: Migration of liver cancer cells through base membrane; format: cell-based
# Protocol: Peptide SEQ ID No:1 from example 1 can inhibit human liver cancer cell BEL-7402 migration from base membrane, at 0.01, 0.1, or 1 mg/ml (12 hour incubation).
# [10] = system: human liver cancer cell BEL-7402; test: Cancer cell attachment to base membrane; format: cell-based; settings: incubated with cancer cells for 12 hours, FIG. 6
# [11] = system: phosphorylation of Erk1/2; test: Western blot, PDGFR intracellular Ras-Raf signaling pathway in HUVEC; format: cell-based, Human; settings: 6 hours, 10 ug/ml (2 uM)
# Protocol: Various concentration of Peptide SEQ ID No:1 was incubated with Human Umbilical Vein Endothelial Cells (HUVEC) cells for 6 hours. Protein was extracted from these cells and western blot was performed. Antibody for p-stat1: Antibody against phophorylated-Tyr701; Antibody for p-MEK1/2: Antibody against phophorylated-Ser217/221 peptide; Antibody for p-Erk1/2: Antibody against phophorylated-Ser202/204. beta-Actin was a control to make sure all lanes are loaded with same amount of protein.
# [12] = system: human stomach cancer SGC-7901; test: Human stomach cancer SGC-7901 xenograph nude mice; format: in vivo; settings: 0.125 mg/kg IV, 6 times a week, 3 weeks
# Protocol: as §1, §2, §3, §4
# Peptide SEQ ID No:1 was given through tail vain (IV), at dosing of 1 mg/kg, 0.5 mg/kg, 0.25 mg/kg, 0.125 mg/kg, and 0.0625 mg/kg, 6 times a week. 5-FU was positive control, at dosing of 25 mg/kg, once a week. Negative control was given saline solution. The xenograph nude mice were treated for 3 weeks.
substance,measurement,setting,value
SKVTKKYHEVLQLRPKTGVRGLHKSLTDVALEHHEECDCVCRGSTGG-OH (cysteines drawn unpaired) [Peptide SEQ ID NO:1],α-SMA mRNA expression (RT-PCR),[1],inhibits α-SMA mRNA expression
same,T/C(%) relative tumor inhibition rate,[2]; 0.125 mg/kg IV,48.96%
same,T/C(%) relative tumor inhibition rate,[2]; 0.25 mg/kg IV,47.98%
same,IC50,[3],1.78 µM
same,IC50,[4],2.33 µM
same,IC50,[5],1.25 µM
same,weight of the mice,[6],not affected
same,T/C(%) relative tumor inhibition rate,[7]; 0.0625 mg/kg IV,58.56%
same,T/C(%) relative tumor inhibition rate,[7]; 0.125 mg/kg IV,62.10%
same,T/C(%) relative tumor inhibition rate,[7]; 0.25 mg/kg IV,69.06%
same,T/C(%) relative tumor inhibition rate,[7]; 0.5 mg/kg IV,64.90%
same,"inhibition, tumor","[7]; BEL-7402, 1 mg/kg",39.7%
same,T/C(%) relative tumor inhibition rate,[8],49.40%
same,migration from base membrane,"[9]; BEL-7402, 0.01, 0.1, or 1 mg/ml, 12 hour incubation",can inhibit
same,cancer cell migration ability through base membrane,"[9]; incubated with cancer cells for 12 hours, FIG. 7",inhibits cancer cell migration ability through base membrane
same,cancer cell attachment to base membrane,[10],inhibited cancer cell attachment to base membrane
same,phosphorylation of Erk1/2 (western blot),[11],significantly inhibits phosphorylation of Erk1/2
same,T/C(%) relative tumor inhibition rate,[12],47.66%

# From patent US8637467B2, “Pharmaceutical being used for treating cancer and fibrosis disease and the composition and uses thereof” (Wuxi MTLH Biotechnology Co., Ltd., priority 2008, dated 2014)
